Consider two molecules from ChEMBL document CHEMBL3706492, “CYP3A4-mediated hepatic metabolism of the HIV-1 protease inhibitor saquinavir in vitro” (Xenobiotica, 2002).

Common to all, as to conditions: human, microsomes
The nature of data set [1]: (§1) Fraction of total metabolites recovered as M4. The data set is classed as ADME, Liver, Microsome.
The nature of data set [2]: as §1. It is filed as ADME, Small intestine, Microsome.
A short description of data set [3]: (§2) Fraction of total metabolites recovered as M10. It is filed as ADME, Liver, Microsome.
A short description of data set [4]: as §2. It is filed as ADME, Small intestine, Microsome.

SMILES strings stand for the structures.

On to `CC(C)(C)NC(=O)[C@@H]1C[C@@H]2C[C@@H](O)CC[C@@H]2CN1C[C@@H](O)[C@H](Cc1ccccc1)NC(=O)[C@H](CC(N)=O)NC(=O)c1ccc2ccccc2n1`, for which the Compound recovery in data set [1] and in data set [2] was 21% in each case.

For the molecule `CC(C)(CO)NC(=O)[C@@H]1C[C@@H]2CCCC[C@@H]2CN1C[C@@H](O)[C@H](Cc1ccccc1)NC(=O)[C@H](CC(N)=O)NC(=O)c1ccc2ccccc2n1`, the Compound recovery in data set [3] and in data set [4] was 6% throughout.
